# Data from ChEMBL document CHEMBL1212699, “Chemical approaches to understanding O-GlcNAc glycosylation in the brain” (Nat Chem Biol, 2008).
# Assay: Inhibition of beta-N-acetylglucosaminidase
smiles,measurement,value
CC(C)C(=O)N[C@H]1c2nc(CCc3ccccc3)cn2[C@H](CO)[C@@H](O)[C@@H]1O,Ki,4.6 pM
